Earlier results, collected in US4883863A, “Tripeptide derivatives and antiplasmin agents containing the same” (Nitto Boseki Co., Ltd., priority 1987, dated 1989).
Read-outs that look alike come from different tables or passages of the source.

Columns and labels:
[1] = biological target: T1, plasmin (Homo sapiens, UniProt P00747); parameters: purchased Sankyo (Color Test α2 -D1 Kit); details: cited from earlier work
[2] = biological target: T1, plasmin; parameters: purchased Sankyo (Color Test α2 -D1 Kit); details: cited from earlier work; remark: listed apart in the source

T1 sequence (P00747 581-810 limits assumed, species assumed): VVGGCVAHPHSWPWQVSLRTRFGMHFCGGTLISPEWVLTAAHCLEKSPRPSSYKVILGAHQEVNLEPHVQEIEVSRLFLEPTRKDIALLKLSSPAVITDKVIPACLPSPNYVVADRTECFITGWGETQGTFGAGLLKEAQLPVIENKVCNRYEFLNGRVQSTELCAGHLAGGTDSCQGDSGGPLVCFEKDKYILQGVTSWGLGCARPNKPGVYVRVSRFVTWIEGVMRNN
T1 sequence (P00747 97-580 partner limits assumed, species assumed): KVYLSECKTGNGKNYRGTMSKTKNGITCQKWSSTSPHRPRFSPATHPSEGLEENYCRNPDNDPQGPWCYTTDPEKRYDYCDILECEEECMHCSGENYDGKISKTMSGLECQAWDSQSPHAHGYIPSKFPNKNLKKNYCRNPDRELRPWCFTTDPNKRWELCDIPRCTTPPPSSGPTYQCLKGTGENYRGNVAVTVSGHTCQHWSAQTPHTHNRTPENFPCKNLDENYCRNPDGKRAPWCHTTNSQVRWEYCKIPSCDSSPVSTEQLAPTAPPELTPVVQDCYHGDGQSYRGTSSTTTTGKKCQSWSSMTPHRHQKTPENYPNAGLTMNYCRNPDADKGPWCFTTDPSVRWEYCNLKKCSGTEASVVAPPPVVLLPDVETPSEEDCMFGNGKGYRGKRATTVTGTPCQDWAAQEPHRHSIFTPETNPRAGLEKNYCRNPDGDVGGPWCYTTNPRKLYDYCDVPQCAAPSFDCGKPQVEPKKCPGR

For `NC[C@H]1CC[C@H](C(=O)O)CC1` [t-AMCHA, trans-aminoethylcyclohexanecarboxylic acid], the “inhibition of fibrinolysis by plasmin” value [1] is given as “inhibit only fibrinolysis by plasmin” and the “ability to inhibit decomposition of other substrates by plasmin, e.g. fibrinogen” value [2] is given as “substantially no ability to inhibit”.

For `NCCCCCC(=O)O` [ε-Aminocaproic acid], the “inhibition of fibrinolysis by plasmin” value ([1]; background, related art) is listed as “inhibit only fibrinolysis by plasmin” and the “ability to inhibit decomposition of other substrates by plasmin, e.g. fibrinogen” value ([2]; background, related art) is listed as “substantially no ability to inhibit”.
